Experiments:
SNB-75 = assay: NCI 60-cell line growth inhibition assay: SNB-75; type: cell-based; conditions: Homo sapiens
HCC-2998 = assay: NCI 60-cell line growth inhibition assay: HCC-2998; type: cell-based; conditions: Homo sapiens, HCC 2998
SK-MEL-2 = assay: NCI 60-cell line growth inhibition assay: SK-MEL-2; type: cell-based; conditions: Homo sapiens
SK-MEL-28 = assay: NCI 60-cell line growth inhibition assay: SK-MEL-28; type: cell-based; conditions: Homo sapiens, Melanoma
Description: (§1) The following data in Table 4 summarize the growth inhibition properties of several compounds of the present invention against 60-human transformed cell lines.

OVCAR-4 = assay: NCI 60-cell line growth inhibition assay: OVCAR-4; type: cell-based; conditions: Homo sapiens
T-47D = assay: NCI 60-cell line growth inhibition assay: T-47D; type: cell-based; conditions: Homo sapiens, T47D, Breast
Description: as §1

SF-539 = assay: NCI 60-cell line growth inhibition assay: SF-539; type: cell-based; conditions: Homo sapiens
BT-549 = assay: NCI 60-cell line growth inhibition assay: BT-549; type: cell-based; conditions: Homo sapiens
MCF-7 cells = assay: MCF-7 GI50 determination (crystal violet growth inhibition); type: cell-based, human; conditions: Homo sapiens, MCF7, 96 h, read-out: MCF-7 Cells GI50 (nM)
Method in brief: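 MCF-7 cells seeded at 2×10^4 cells/well, grown 24 h drug-free, then exposed to 10-fold compound dilutions for 4 days. Glutaraldehyde-fixed cells stained with crystal violet, absorbance read at 570 nm; GI=100×(T/T0) against day-0 control OD, GI50 from growth inhibition versus concentration plots.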

CCRF-CEM = assay: NCI 60-cell line growth inhibition assay: CCRF-CEM; type: cell-based; conditions: Homo sapiens, Leukemia
Description: as §1

RXF 393 = assay: NCI 60-cell line growth inhibition assay: RXF 393; type: cell-based; conditions: Homo sapiens
NCI-H460 = type: cell-based; conditions: Homo sapiens
MALME-3M = assay: NCI 60-cell line growth inhibition assay: MALME-3M; type: cell-based; conditions: Homo sapiens, Malme-3M
OVCAR-5 = assay: NCI 60-cell line growth inhibition assay: OVCAR-5; type: cell-based; conditions: Homo sapiens
UO-31 = assay: NCI 60-cell line growth inhibition assay: UO-31; type: cell-based; conditions: Homo sapiens
NCI-H23 = type: cell-based; conditions: Homo sapiens
UACC-257 = assay: NCI 60-cell line growth inhibition assay: UACC-257; type: cell-based; conditions: Homo sapiens
HCT-116 = assay: NCI 60-cell line growth inhibition assay: HCT-116; type: cell-based; conditions: Homo sapiens
HL-60(TB) = assay: cells; type: cell-based; conditions: Homo sapiens, Leukemia
K-562 = assay: NCI 60-cell line growth inhibition assay: K-562; type: cell-based; conditions: Homo sapiens, K562
NCI-H226 = type: cell-based; conditions: Homo sapiens, Non-Small Cell Lung
Description: as §1

SR = assay: NCI 60-cell line growth inhibition assay: SR; type: cell-based; conditions: Homo sapiens, Leukemia
Description: as §1

Q: How did the GI50 (SNB-75) turn out when `CC[C@]1(O)C[C@H]2CN(CCc3c([nH]c4ccc(C#Cc5ccccc5)cc34)[C@@](C(=O)OC)(c3cc4c(cc3OC)N(C)[C@H]3[C@@](O)(C(=O)OC)[C@H](OC(C)=O)[C@]5(CC)C=CCN6CC[C@]43[C@@H]65)C2)C1` [Example 19, 12′-(2-phenylethynyl) vinblastine] was run?
A: Its GI50 is 530 nM.

Q: And the GI50 (HCC-2998)?
A: The GI50 was 182 nM.

Q: What about the GI50 (SK-MEL-2) of the same compound?
A: Its GI50 is 2290 nM.

Q: And the GI50 (SK-MEL-28)?
A: The GI50 was 1270 nM.

Q: And the GI50 (OVCAR-4)?
A: Its GI50 is 1550 nM.

Q: What about the GI50 (T-47D) of the same compound?
A: The GI50 was 4750 nM.

Q: And the GI50 (SF-539)?
A: The GI50 was 1790 nM.

Q: What about the GI50 (BT-549) of the same compound?
A: Its GI50 is 1890 nM.

Q: What about the GI50 (MCF-7 cells) of the same compound?
A: Its GI50 is 800 nM.

Q: What about the GI50 (CCRF-CEM) of the same compound?
A: Its GI50 is 263 nM.

Q: And the GI50 (RXF 393)?
A: The GI50 was 619 nM.

Q: What about the GI50 (NCI-H460) of the same compound?
A: The GI50 was 353 nM.

Q: And the GI50 (MALME-3M)?
A: Its GI50 is 254 nM.

Q: And the GI50 (OVCAR-5)?
A: The GI50 was 1780 nM.

Q: And the GI50 (UO-31)?
A: The GI50 was 2200 nM.

Q: What about the GI50 (NCI-H23) of the same compound?
A: Its GI50 is 541 nM.

Q: And the GI50 (UACC-257)?
A: Its GI50 is 46000 nM.

Q: What about the GI50 (HCT-116) of the same compound?
A: The GI50 was 300 nM.

Q: `CCCC(=O)/C=C/c1ccc2[nH]c3c(c2c1)CCN1C[C@H](C[C@@](O)(CC)C1)C[C@]3(C(=O)OC)c1cc2c(cc1OC)N(C)[C@H]1[C@@](O)(C(=O)OC)[C@H](OC(C)=O)[C@]3(CC)C=CCN4CC[C@]21[C@@H]43` [Example 29, 12′-(3-oxohex-1-enyl)vinblastine] was tested. Which GI50 (HCC-2998) did it give?
A: The GI50 was less than 10 nM.

Q: And the GI50 (SK-MEL-2)?
A: Its GI50 is 9770 nM.

Q: And the GI50 (OVCAR-4)?
A: Its GI50 is 21.1 nM.

Q: What about the GI50 (HL-60(TB)) of the same compound?
A: The GI50 was 244 nM.

Q: And the GI50 (SF-539)?
A: The GI50 was 21 nM.

Q: And the GI50 (MCF-7 cells)?
A: Its GI50 is 515 nM.

Q: What about the GI50 (CCRF-CEM) of the same compound?
A: Its GI50 is 28.8 nM.

Q: What about the GI50 (K-562) of the same compound?
A: Its GI50 is less than 10 nM.

Q: What about the GI50 (NCI-H226) of the same compound?
A: The GI50 was less than 10 nM.

Q: What about the GI50 (RXF 393) of the same compound?
A: The GI50 was 268 nM.

Q: What about the GI50 (NCI-H460) of the same compound?
A: Its GI50 is 176 nM.

Q: What about the GI50 (UACC-257) of the same compound?
A: Its GI50 is 19300 nM.

Q: What about the GI50 (HCT-116) of the same compound?
A: The GI50 was less than 10 nM.

Q: What about the GI50 (SR) of the same compound?
A: The GI50 was 396 nM.

Q: How did the GI50 (SNB-75) turn out when `CCC1=C[C@H]2CN(CCc3c([nH]c4ccc(Br)cc34)[C@@](C(=O)OC)(c3cc4c(cc3OC)N(C)[C@H]3[C@@](O)(C(=O)OC)[C@H](OC(C)=O)[C@]5(CC)C=CCN6CC[C@]43[C@@H]65)C2)C1` [Example 97, 12′-bromoanhydro vinblastine] was run?
A: The GI50 was 12200 nM.

Q: And the GI50 (HCC-2998)?
A: Its GI50 is less than 10 nM.

Q: What about the GI50 (SK-MEL-28) of the same compound?
A: The GI50 was 3310 nM.

Q: And the GI50 (HL-60(TB))?
A: The GI50 was less than 10 nM.

Q: What about the GI50 (T-47D) of the same compound?
A: Its GI50 is 19400 nM.

Q: What about the GI50 (SF-539) of the same compound?
A: Its GI50 is less than 10 nM.

Q: What about the GI50 (MCF-7 cells) of the same compound?
A: The GI50 was 50 nM.

Q: And the GI50 (CCRF-CEM)?
A: Its GI50 is less than 10 nM.

Q: And the GI50 (K-562)?
A: The GI50 was less than 10 nM.

Q: What about the GI50 (NCI-H226) of the same compound?
A: The GI50 was less than 10 nM.

Q: And the GI50 (NCI-H460)?
A: Its GI50 is less than 10 nM.

Q: And the GI50 (MALME-3M)?
A: The GI50 was 1420 nM.

Q: And the GI50 (OVCAR-5)?
A: Its GI50 is 12.4 nM.

Q: And the GI50 (NCI-H23)?
A: Its GI50 is 325 nM.

Q: And the GI50 (UACC-257)?
A: Its GI50 is 3950 nM.

Q: What about the GI50 (HCT-116) of the same compound?
A: Its GI50 is less than 10 nM.

From patent US7745619B2, “Vinca derivatives” (priority 2003, dated 2010)
